# Earlier results, collected in patent US20250041489A1, “A Drug Coating Formulation for a Sirolimus Coated Balloon Catheter” (C. R. Bard, Inc., priority 2021, published 2025).
# Details: compared to amorphous sirolimus
smiles,measurement,value
"CO[C@H]1C[C@@H]2CC[C@@H](C)[C@@](O)(O2)C(=O)C(=O)N2CCCC[C@H]2C(=O)O[C@H]([C@H](C)C[C@@H]2CC[C@@H](O)[C@H](OC)C2)CC(=O)[C@H](C)/C=C(\C)[C@@H](O)[C@@H](OC)C(=O)[C@H](C)C[C@H](C)/C=C/C=C/C=C/1C [crystalline sirolimus, sirolimus]",Half-life of sirolimus on the surface of a balloon,four weeks
